Laboratory results as given in PMC7748245, “Identification and Optimization of a Series of 8-Hydroxy Naphthyridines with Potent In Vitro Antileishmanial Activity: Initial SAR and Assessment of In Vivo Activity” (Journal of Medicinal Chemistry, 2020).
Values after ≈ are worked out from the molar mass of the structure shown.

Key:
THP-1 cells = experiment: THP-1 host cell toxicity readout of the intramacrophage assay; assay type: cell-based, human; settings: for THP-1 (pEC50): human THP-1 host cells; for THP1 pIC50: supplement sheet
Method: (§1) This assay was conducted as previously described,[8] except for compound exposure time, which was 96 h instead of 72 h.

[1] = Mouse liver microsomal intrinsic clearance; assay type: in vitro ADME; settings: for Cli (mouse liver microsomal intrinsic clearance): mouse liver microsomes; for Cli (mouse, ml/min/g): supplement sheet
Method: (§2) These assays were conducted as previously described.[23]

[2] = Kinetic aqueous solubility; assay type: physicochemical; settings: kinetic; read-out: Aq Solubility (kinetic aqueous solubility)
Method: as §2

L. donovani amastigotes = experiment: Intramacrophage L. donovani assay (Ld InMac); assay type: cell-based, Leishmania donovani; settings: for LdInMac pIC50: supplement sheet; for Ld InMac (pEC50): L. donovani amastigotes in THP-1 cells, 96 h compound exposure
Method: as §1

Chrom Log D pH7.4 = assay type: physicochemical; settings: for ChromLogDpH7.4: pH 7.4; for ChromLogD: supplement sheet
Method: This assay was conducted as previously described.[11]

Compound	THP-1 (pEC50) (THP-1 cells)	THP1 pIC50 (THP-1 cells)	Cli (mouse liver microsomal intrinsic clearance) [1] [mL/min/g]	Cli (mouse, ml/min/g) [1] [mL/min/g]	solubility kinetic [2] [µM]	LdInMac pIC50 (L. donovani amastigotes)	ChromLogDpH7.4 (Chrom Log D pH7.4)	ChromLogD (Chrom Log D pH7.4)	Ld InMac (pEC50) (L. donovani amastigotes)
2-(8-Hydroxy-7-(3-methyl-1H-1,2,4-triazol-5-yl)-1,6-naphthyridin-5-yl)-1,2-thiazinane 1,1-dioxide [Compound 13]	<4.3	<4.3	0.6	0.6	250	<4.3	1.5	1.5	
5-(Dimethylamino)-7-(3-methyl-1H-1,2,4-triazol-5-yl)-1,6-naphthyridin-8-ol [Compound 9]	<4.3	<4.3	14	14	>250	4.8	-0.6	-0.6	
7-(3-Methyl-1H-1,2,4-triazol-5-yl)-5-(2-(trifluoromethyl)phenyl)-1,6-naphthyridin-8-ol [Compound 15]	<4.3	<4.3	1.4	1.4	>250	7	4.3	4.3	7.0
CNc1nc(-c2nc(C)n[nH]2)c(O)c2ncccc12 [Compound 8, 7-(3-Methyl-1H-1,2,4-triazol-5-yl)-5-(methylamino)-1,6-naphthyridin-8-ol]	<4.3	<4.3	3.1	3.1	>250	<4.3	-0.2	-0.2	
Cc1n[nH]c(-c2nc(NCc3ccc(Cl)cc3)c3cccnc3c2O)n1 [Compound 10, 5-((4-Chlorobenzyl)amino)-7-(3-methyl-1H-1,2,4-triazol-5-yl)-1,6-naphthyridin-8-ol]	<4.3	<4.3	3.4	3.4	219 (≈ 80.3 µg/mL)	5.8	4.4	4.4	
Cc1n[nH]c(-c2nc(N3CCOCC3)c3cccnc3c2O)n1 [Compound 11, 7-(3-Methyl-1H-1,2,4-triazol-5-yl)-5-morpholino-1,6-naphthyridin-8-ol]	<4.3	<4.3	3.1	3.1	>250	5	1.8	1.8	
N-(Cyclopropylmethyl)-8-hydroxy-5-(2-methoxyphenyl)-1,6-naphthyridine-7-carboxamide [Compound 33]	<4.3	<4.3	8	8	>250	5.7			5.7
